In publication PMC7933930, “Development of a small molecule that corrects misfolding and increases secretion of Z α1‐antitrypsin” (EMBO Molecular Medicine, 2021):
pEC50, pIC50: −log10 of the molar value.

Assays:
[1] = system: CHO inducible cells expressing wild‐type M α1‐antitrypsin; test: Tunicamycin sensitivity, cell viability (Cell Counting Kit‐8), cells expressing M α1‐antitrypsin; type: cell-based; details: 10 μM GSK716, cells expressing M α1‐antitrypsin, tunicamycin 36 h
Description: Figure 2 GSK716 inhibits polymerisation of Z α1‐antitrypsin in cell models of disease • A GSK716 was added to CHO‐TET‐ON‐Z‐A1AT cells (Ordóñez et al, 2013) with simultaneous induction of Z α1‐antitrypsin expression using doxycycline, and polymer load was quantified with the 2C1 monoclonal antibody that is specific to pathological polymers of α1‐antitrypsin (Miranda et al, 2010). […] Data were normalised to vehicle and a control compound from the GSK716 series at saturating concentration. […] It induced an approximately threefold increase in secreted levels of Z α1‐antitrypsin compared with vehicle control. This was apparent even after polymers had been allowed to form. Scale bar: 100 µm. Data presented as mean ± SD, n = 8 (secretion) and n = 6 (polymer inhibition). • E CHO tetracycline‐inducible cells expressing Z α1‐antitrypsin were induced with 0.5 μg/ml doxycycline for 48 h and treated with 10 μM GSK716. […] For every time point, NP‐40‐soluble and NP‐40‐insoluble fractions were separated and immunoprecipitated with the 2C1 mAb and resolved by 4–12% w/v SDS–PAGE and α1‐antitrypsin detected by immunoblotting. […] Cell viability was measured by Cell Counting Kit‐8. […] Samples were resolved by 4–12% w/v acrylamide SDS–PAGE and detected by autoradiography. • H The graphs show the effect of GSK716 on intracellular and extracellular Z α1‐antitrypsin (mean ± SEM, n = 2). […]

[2] = molecular target: Dopamine D1 (Homo sapiens, UniProt P21728); test: Off‐target panel: Dopamine D1 (DRX); type: cell-based
Dopamine D1, sequence (P21728 whole entry): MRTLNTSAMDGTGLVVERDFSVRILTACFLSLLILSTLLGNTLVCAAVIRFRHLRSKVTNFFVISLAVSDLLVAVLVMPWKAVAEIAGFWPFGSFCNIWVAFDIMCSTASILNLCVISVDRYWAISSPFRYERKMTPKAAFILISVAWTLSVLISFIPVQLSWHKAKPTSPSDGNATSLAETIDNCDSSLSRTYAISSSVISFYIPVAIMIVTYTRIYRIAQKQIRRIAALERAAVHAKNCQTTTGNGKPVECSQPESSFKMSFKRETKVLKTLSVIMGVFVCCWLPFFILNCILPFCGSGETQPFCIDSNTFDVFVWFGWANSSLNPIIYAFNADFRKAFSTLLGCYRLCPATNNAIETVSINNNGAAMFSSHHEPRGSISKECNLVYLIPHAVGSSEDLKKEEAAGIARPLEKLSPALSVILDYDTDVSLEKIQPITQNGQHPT
Description: (§1) GSK716 selectivity and PK properties were profiled in order to investigate the suitability of GSK716 for progression into in vivo studies and the potential for taking it forward as a clinical candidate for testing in humans. Since GSK716 results in loss of inhibitory activity of α1‐antitrypsin, the effect of the compound was assessed on other closely related serpins. […] Furthermore, there were no off‐target effects in a panel of assays considered predictive of known safety liabilities that precluded further development of GSK716 (Table EV1).

[3] = molecular target: Glucocorticoid Receptor (Homo sapiens, UniProt P04150); test: Off‐target panel: Glucocorticoid Receptor; type: cell-based; details: Agonist, read-out: Mean (PXC50)
Glucocorticoid Receptor, sequence (P04150 whole entry, species assumed): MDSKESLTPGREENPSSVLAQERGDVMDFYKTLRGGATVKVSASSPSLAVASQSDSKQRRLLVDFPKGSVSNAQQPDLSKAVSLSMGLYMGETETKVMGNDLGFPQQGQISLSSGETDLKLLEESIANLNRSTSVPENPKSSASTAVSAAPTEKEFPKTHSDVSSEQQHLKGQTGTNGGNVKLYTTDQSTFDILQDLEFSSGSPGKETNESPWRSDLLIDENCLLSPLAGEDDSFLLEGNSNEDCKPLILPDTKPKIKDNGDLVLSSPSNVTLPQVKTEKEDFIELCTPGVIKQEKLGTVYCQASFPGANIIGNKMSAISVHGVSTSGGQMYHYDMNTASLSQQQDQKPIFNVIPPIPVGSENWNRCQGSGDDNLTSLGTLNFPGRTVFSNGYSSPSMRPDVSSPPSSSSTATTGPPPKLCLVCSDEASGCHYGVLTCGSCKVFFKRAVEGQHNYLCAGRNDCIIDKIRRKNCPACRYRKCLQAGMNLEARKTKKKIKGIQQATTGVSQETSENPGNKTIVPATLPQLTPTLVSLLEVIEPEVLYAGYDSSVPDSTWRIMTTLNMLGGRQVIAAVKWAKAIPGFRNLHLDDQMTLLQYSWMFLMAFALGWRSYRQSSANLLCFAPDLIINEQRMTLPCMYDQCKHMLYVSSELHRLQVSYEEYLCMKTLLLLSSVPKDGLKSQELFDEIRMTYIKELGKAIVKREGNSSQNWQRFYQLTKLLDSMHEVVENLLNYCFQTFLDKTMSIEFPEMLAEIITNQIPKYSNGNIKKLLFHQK
Description: as §1

[4] = molecular target: KCNQ1/minK (Homo sapiens, UniProt P51787); test: cell-based
Description: as §1

[5] = molecular target: OPRM1 (Homo sapiens, UniProt P35372); test: Off‐target panel: OPRM1 (DRX); type: cell-based
OPRM1, sequence (P35372 whole entry, species assumed): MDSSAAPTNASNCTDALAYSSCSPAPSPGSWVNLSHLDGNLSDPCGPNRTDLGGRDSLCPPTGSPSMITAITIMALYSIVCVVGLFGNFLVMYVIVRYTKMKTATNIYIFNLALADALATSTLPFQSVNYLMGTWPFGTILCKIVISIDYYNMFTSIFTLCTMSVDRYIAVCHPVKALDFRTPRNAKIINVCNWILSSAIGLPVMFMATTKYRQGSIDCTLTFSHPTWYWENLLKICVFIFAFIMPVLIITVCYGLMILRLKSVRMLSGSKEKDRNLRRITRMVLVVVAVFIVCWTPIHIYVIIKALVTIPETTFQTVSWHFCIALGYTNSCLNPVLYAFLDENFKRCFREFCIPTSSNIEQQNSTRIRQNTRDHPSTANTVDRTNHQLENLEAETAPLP
Description: as §1

[6] = molecular target: PDE4B (Homo sapiens, UniProt Q07343); test: Off‐target panel: PDE4B; type: biochemical; details: Inhibition, read-out: Mean (PXC50)
PDE4B, sequence (Q07343 whole entry, species assumed): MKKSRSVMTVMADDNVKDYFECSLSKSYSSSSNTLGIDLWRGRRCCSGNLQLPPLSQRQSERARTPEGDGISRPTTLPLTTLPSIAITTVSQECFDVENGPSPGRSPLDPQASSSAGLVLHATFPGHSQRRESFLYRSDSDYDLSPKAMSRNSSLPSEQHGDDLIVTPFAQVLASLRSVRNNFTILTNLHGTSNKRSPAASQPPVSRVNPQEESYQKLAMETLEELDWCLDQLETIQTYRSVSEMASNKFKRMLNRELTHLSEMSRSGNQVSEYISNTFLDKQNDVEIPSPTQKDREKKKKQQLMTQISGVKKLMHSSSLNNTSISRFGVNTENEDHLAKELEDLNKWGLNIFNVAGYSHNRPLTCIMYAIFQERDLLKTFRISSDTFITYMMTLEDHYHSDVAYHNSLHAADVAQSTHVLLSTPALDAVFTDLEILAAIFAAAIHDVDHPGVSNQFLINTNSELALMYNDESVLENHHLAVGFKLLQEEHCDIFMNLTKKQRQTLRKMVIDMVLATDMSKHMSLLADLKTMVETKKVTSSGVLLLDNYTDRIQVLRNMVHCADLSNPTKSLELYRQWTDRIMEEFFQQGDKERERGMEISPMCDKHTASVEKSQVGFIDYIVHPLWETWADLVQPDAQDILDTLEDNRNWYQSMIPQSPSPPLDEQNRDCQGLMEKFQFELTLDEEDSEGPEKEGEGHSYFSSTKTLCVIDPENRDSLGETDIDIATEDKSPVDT
Description: as §1

In the case of `CCC[C@@H](NC(=O)c1cccc2c1CC(=O)N2)[C@@H](O)c1cccc(F)c1C` [GSK716], the “survival with tunicamycin (cell viability)” value [1] was “no effect”, the pIC50 [2] was under 4.00 and the pEC50 [3] was under 4.00. For the same compound, the pIC50 [4] was under 4.60, the pEC50 [5] was 5.00 and the pIC50 [6] was under 4.00.
